Holding throughout (type): biochemical
Experiment [1] addresses T1, K18PL tau (Homo sapiens, UniProt P10636, P618L).
T1 construct: (K18PL; amino acids 244-369); made in house
Nature of the experiment: K18PL tau centrifugation (sedimentation) assay, SDS-PAGE densitometry. The following applies: Table 3; K18PL tau centrifugation assay. Summed up:
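Heparin-induced fibrillization of K18PL tau in sodium acetate buffer with test compound; mixtures were centrifuged and soluble versus insoluble K18PL quantified by SDS-PAGE densitometry. A repeat run centrifuged DMSO- and compound-treated mixtures for 30 min at time zero to remove pelletable material before incubation.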

Another experiment addresses T2, Aβ(1-42) (Homo sapiens, UniProt P05067).
T2 construct: Synthetic Aβ(1-42) peptide (rPeptide); purchased rPeptide
The experiment can be described thus: Aβ(1-42) fibrillization assay (ThT). The following applies: Table 3; highest tested concentration (80 μM); read-out: Aβ42 ThT Assay % Inhib.

For experiment [2], the target named is T1, K18PL tau. Nature of the experiment: Heparin-induced K18PL tau fibrillization assay monitored by ThT fluorescence. As to conditions: Table 3. Summed up: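 K18PL (30 μM stock, with 0.24 μM Alexa Red-labeled K18PL) plus 40 μM heparin and compound, fibrillized 6 h at 37 °C. Fibrils read by ThT (12.5 μM final, in 100 mM glycine pH 8.5, 1 h RT), ex 450/em 510 nm. Percent inhibition scaled between DMSO wells and non-fibrillizing K18 KD control wells.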

The next experiment has as its target T3, Tau40 (Homo sapiens, UniProt P10636).
T3 construct: Full length tau (Tau40; amino acids 1-441); made in house
Nature of the experiment: SEC of Tau40 fibrillization post-centrifugation supernatants. The following applies: tau40 fibril assembly with 5b relative to untreated fibrillization reaction, FIG. 2. The procedure:
Tau40 (50 μM) and heparin (20 μM) were incubated in a PCR tube with or without the compound 5b (100 μM) at 37° C. for 5 days in a final volume of 100 μl of […] sodium acetate buffer, pH 7.0. In the absence of compound, tau40 fibrillization is complete under these conditions, as determined by ThT fluorescence and centrifugation assays. A non-assembly control reaction was also prepared as above with Tau40 and 5b in the absence of heparin. The completed reactions were centrifuged at 40,000 g for 30 minutes to sediment fibrils and the supernatants were applied to a Superdex 200 10/300 column (GE Healthcare) employing an Äkta Basic FPLC unit (GE Healthcare) with a flow rate of 0.4 ml/minute. Tau elution was monitored by absorbance at 280 nm. Under these chromatography conditions, monomeric tau can be separated from oligomeric species (Li, W. K. and Lee, V. M. Y. (2006) Biochemistry 45, 15692-15701).

Consider one compound from patent publication US20130029983A1, “AMINOTHIENOPYRIDAZINE INHIBITORS OF TAU ASSEMBLY” (priority 2009, published 2013).

A word on the IC50: it is the concentration at which inhibition is half-maximal.

T1 sequence (P10636 561-686 P618L): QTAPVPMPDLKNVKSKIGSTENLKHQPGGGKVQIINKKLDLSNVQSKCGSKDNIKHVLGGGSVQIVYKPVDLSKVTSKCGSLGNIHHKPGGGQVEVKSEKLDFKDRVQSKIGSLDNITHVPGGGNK
T3 sequence (P10636 1-441 isoform P10636-8): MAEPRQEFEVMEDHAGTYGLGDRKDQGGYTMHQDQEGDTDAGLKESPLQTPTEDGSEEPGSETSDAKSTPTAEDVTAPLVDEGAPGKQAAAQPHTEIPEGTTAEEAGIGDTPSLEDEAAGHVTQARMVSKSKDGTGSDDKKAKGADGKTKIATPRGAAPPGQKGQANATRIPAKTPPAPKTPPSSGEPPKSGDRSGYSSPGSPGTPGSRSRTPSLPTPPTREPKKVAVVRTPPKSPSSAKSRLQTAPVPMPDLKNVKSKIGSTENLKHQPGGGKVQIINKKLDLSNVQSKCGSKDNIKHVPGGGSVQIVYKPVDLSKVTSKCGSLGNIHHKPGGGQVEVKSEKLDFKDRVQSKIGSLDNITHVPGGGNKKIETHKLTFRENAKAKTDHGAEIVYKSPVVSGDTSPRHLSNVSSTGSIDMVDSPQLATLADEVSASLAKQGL
T2 sequence (P05067 672-713 limits assumed): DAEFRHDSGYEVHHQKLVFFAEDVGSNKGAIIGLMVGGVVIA

As to `CCOC(=O)c1nn(-c2ccc(OC)cc2)c(=O)c2c(N)scc12` [Compound 5b], the “Tau Cent. Assay % Soluble” value on K18PL tau [1] was 64%. Besides, the inhibition at 80 µM was determined as 28% on Aβ(1-42) and 86% at K18PL tau [2] (highest tested concentration (80 μM), read-out: Tau ThT Assay % Inhib.). Besides, on K18PL tau [2] (logarithm of IC50, K18PL tau ThT fluorescence inhibition, NC = not calculated due to insufficient activity, read-out: Tau ThT Assay Log IC50 (converted)), the IC50 is 5.01 µM. In addition, the “Monomeric tau in post-centrifugation supernatant (SEC)” value at Tau40 is “appreciable increase in the amount of monomeric tau”.
